Read-outs that look alike come from different tables or passages of the source.
What was measured:
MRSA [1] = experiment: Screening on Isosensitest agar with incorporated BTA and 10 μg methicillin discs; assay type: cell-based, Staphylococcus aureus
Procedure: To find substances related to GBE that might have increased potency, various substances, including those with additional glycine moieties and benzylates, have been screened. Screening was carried out using Isosensitest agar (Oxoid, UK) into which various levels of potential BTAs were incorporated at levels between 0.01 and 1.0%. The agar with incorporated BTA was then used in the manner of a standard antibiotic sensitivity test using 10 μg methicillin discs. The test organism was inoculated onto the agar surface at a concentration suitable to achieve confluent growth after 18 hours incubation at 30° C. After incubation, zone diameters were compared with that achieved by the control plate (Isosensitest alone) for each test organism.

MRSA [2] = experiment: Antimicrobial plus BTA against recent clinical MRSA isolates (Table 7); assay type: cell-based, Staphylococcus aureus
Excerpt: The four clinical isolates were isolated from patients during the first three months of 2003. […] An intermediate MRSA has been included, as methicillin-resistance has been achieved by means other than production of PBP2a.

VRE = experiment: Antimicrobial plus BTA against VRE (Table 7); assay type: cell-based, enterococci
[3] = system: vancomycin- and gentamicin-resistant Enterococcus faecium; experiment: microbe, parasite or virus in culture; assay type: cell-based; settings: Enterococcus faecium, 0.0 (Control)
Excerpt: The agents of the present invention are not limited to the reversal of resistance in Staphylococcus. The test strains in Table 5 are patient-isolates of vancomycin- and gentamicin-resistant Enterococcus faecium. At the time of isolation, they were commonly resistant to all clinically useable antimicrobial agents.

[4] = system: vancomycin- and gentamicin-resistant Enterococcus faecium; experiment: microbe, parasite or virus in culture; assay type: cell-based; settings: ATCC29212, read-out: MIC of vancomycin, ATCC 29212 (vancomycin-sensitive reference strain), 0.0 (Control)
[5] = system: MRSA with intermediate resistance to glycopeptides; experiment: MIC of vancomycin or teicoplanin for MRSA with intermediate resistance to glycopeptides grown with GBE or NAGly (Table 4); assay type: cell-based, Staphylococcus aureus; settings: for MIC: Staphylococcus aureus
[6] = system: glycopeptide-resistant enterococci; settings: cited from earlier work
[7] = cited from earlier work
[8] = system: vancomycin-resistant enterococci (VRE); experiment: Activity of BTAs against vancomycin-resistant enterococci; assay type: cell-based
E. faecium = settings: cited from earlier work
[9] = vanA, E. faecium and E. faecalis

Nc1ccc(C(=O)NCC(=O)O)cc1 [Amino-HA, P-Amino Hippuric acid]
activity relative to Hippuric acid and GBE (MRSA [1]): improved activity
Cephalexin (antimicrobial plus BTA; quantity not named, MIC implied) (MRSA [2]; EMRSA-16, +BTA 0.01%): 3 µg/mL
Oxacillin (antimicrobial plus BTA; quantity not named, MIC implied) (MRSA [2]; EMRSA-16, +BTA 0.01%): 3 µg/mL
Cephalexin (antimicrobial plus BTA; quantity not named, MIC implied) (MRSA [2]; EMRSA-16, +BTA 0.1%): 1 µg/mL
Oxacillin (antimicrobial plus BTA; quantity not named, MIC implied) (MRSA [2]; EMRSA-16, +BTA 0.1%): 0.75 µg/mL
Vancomycin (antimicrobial plus BTA; quantity not named, MIC implied) (MRSA [2]; EMRSA-16, +BTA 0.1%): 0.25 µg/mL
Cephalexin (antimicrobial plus BTA; quantity not named, MIC implied) (MRSA [2]; EMRSA-17, +BTA 0.01%): 6 µg/mL
Oxacillin (antimicrobial plus BTA; quantity not named, MIC implied) (MRSA [2]; EMRSA-17, +BTA 0.01%): 6 µg/mL
Cephalexin (antimicrobial plus BTA; quantity not named, MIC implied) (MRSA [2]; EMRSA-17, +BTA 0.1%): 4 µg/mL
Oxacillin (antimicrobial plus BTA; quantity not named, MIC implied) (MRSA [2]; EMRSA-17, +BTA 0.1%): 1 µg/mL
Vancomycin (antimicrobial plus BTA; quantity not named, MIC implied) (MRSA [2]; EMRSA-17, +BTA 0.1%): 0.25 µg/mL
Cephalexin (antimicrobial plus BTA; quantity not named, MIC implied) (MRSA [2]; I-MRSA, +BTA 0.01%): 1.5 µg/mL
Oxacillin (antimicrobial plus BTA; quantity not named, MIC implied) (MRSA [2]; I-MRSA, +BTA 0.01%): 1.5 µg/mL
Cephalexin (antimicrobial plus BTA; quantity not named, MIC implied) (MRSA [2]; I-MRSA, +BTA 0.1%): 0.064 µg/mL
Oxacillin (antimicrobial plus BTA; quantity not named, MIC implied) (MRSA [2]; I-MRSA, +BTA 0.1%): 0.064 µg/mL
Vancomycin (antimicrobial plus BTA; quantity not named, MIC implied) (MRSA [2]; I-MRSA, +BTA 0.1%): < 0.25 µg/mL
Vancomycin (antimicrobial plus BTA; quantity not named, MIC implied) (VRE; +BTA 0.1%): 64 µg/mL

CN[C@H](CC(C)C)C(=O)N[C@H]1C(=O)N[C@@H](CC(N)=O)C(=O)N[C@H]2C(=O)N[C@H]3C(=O)N[C@H](C(=O)N[C@H](C(=O)O)c4cc(O)cc(O)c4-c4cc3ccc4O)[C@H](O)c3ccc(c(Cl)c3)Oc3cc2cc(c3O[C@@H]2O[C@H](CO)[C@@H](O)[C@H](O)[C@H]2O[C@H]2C[C@](C)(N)[C@H](O)[C@H](C)O2)Oc2ccc(cc2Cl)[C@H]1O [vancomycin]
MIC ([3]; read-out: MIC of vancomycin, BBC): 32 µg/mL
MIC ([3]; read-out: MIC of vancomycin, E254): 128 µg/mL
MIC ([3]; read-out: MIC of vancomycin, E267): 128 µg/mL
MIC ([3]; read-out: MIC of vancomycin, E271): 64 µg/mL
MIC ([3]; read-out: MIC of vancomycin, E285): 64 µg/mL
MIC ([3]; read-out: MIC of vancomycin, E297): 128 µg/mL
MIC ([3]; read-out: MIC of vancomycin, GBC): 64 µg/mL
MIC ([3]; read-out: MIC of vancomycin, S226): 128 µg/mL
MIC ([3]; read-out: MIC of vancomycin, S227): 128 µg/mL
MIC ([3]; read-out: MIC of vancomycin, S283): 64 µg/mL
MIC ([3]; read-out: MIC of vancomycin, S302): 64 µg/mL
MIC ([3]; read-out: MIC of vancomycin, S315): 64 µg/mL
MIC ([3]; read-out: MIC of vancomycin, S317): 128 µg/mL
MIC ([3]; read-out: MIC of vancomycin, S319): 64 µg/mL
MIC ([3]; read-out: MIC of vancomycin, S333): 64 µg/mL
MIC ([3]; read-out: MIC of vancomycin, S337): 32 µg/mL
MIC ([3]; read-out: MIC of vancomycin, S393): 64 µg/mL
MIC ([3]; read-out: MIC of vancomycin, S497): 64 µg/mL
MIC ([3]; read-out: MIC of vancomycin, S556): 64 µg/mL
MIC ([3]; read-out: MIC of vancomycin, WBC): 64 µg/mL
MIC [4]: 2 µg/mL
Vancomycin (antimicrobial plus BTA; quantity not named, MIC implied) (MRSA [2]; EMRSA-16, vancomycin alone): 1 µg/mL
Vancomycin (antimicrobial plus BTA; quantity not named, MIC implied) (MRSA [2]; EMRSA-17, vancomycin alone): 2 µg/mL
Vancomycin (antimicrobial plus BTA; quantity not named, MIC implied) (MRSA [2]; I-MRSA, vancomycin alone): 0.5 µg/mL
MIC ([5]; MRSA / NCTC 12493, read-out: MIC of vancomycin, NCTC 12493, Control): 0.5 µg/mL
MIC ([5]; MRSA / NCTC 12493, read-out: MIC of vancomycin, reference strain NCTC 12493, as stated in text on Table 1): 2 µg/mL
MIC ([5]; MRSA / VISA, read-out: MIC of vancomycin, L266 (first line), EMRSA-17 (VISA), Control): 8 µg/mL
MIC ([5]; MRSA / VISA, read-out: MIC of vancomycin, L266 (second line), EMRSA-17 (VISA), Control): 8 µg/mL
Vancomycin (antimicrobial plus BTA; quantity not named, MIC implied) (VRE; vancomycin alone): > 256 µg/mL
level of vancomycin to which resistance is conferred [6, 9]: ≥ 256 mg/L
level of vancomycin to which resistance is conferred ([6]; vanE, E. faecalis): 16 mg/L

CCOC(=O)CNC(=O)CN [GGEE, Glycylglycine ethyl ester]
activity against VRE and MRSA relative to glycylglycine benzyl ester (MRSA [1]; VRE and MRSA): greater activity
Oxacillin (antimicrobial plus BTA; quantity not named, MIC implied) (MRSA [2]; EMRSA-16, +BTA 0.01%): 1.5 µg/mL
Cephalexin (antimicrobial plus BTA; quantity not named, MIC implied) (MRSA [2]; EMRSA-16, +BTA 0.1%): 1.5 µg/mL
Oxacillin (antimicrobial plus BTA; quantity not named, MIC implied) (MRSA [2]; EMRSA-16, +BTA 0.1%): 1 µg/mL
Cephalexin (antimicrobial plus BTA; quantity not named, MIC implied) (MRSA [2]; EMRSA-16, +BTA 1.0%): 0.75 µg/mL
Oxacillin (antimicrobial plus BTA; quantity not named, MIC implied) (MRSA [2]; EMRSA-16, +BTA 1.0%): 0.75 µg/mL
Vancomycin (antimicrobial plus BTA; quantity not named, MIC implied) (MRSA [2]; EMRSA-16, +BTA 1.0%): 0.25 µg/mL
Oxacillin (antimicrobial plus BTA; quantity not named, MIC implied) (MRSA [2]; EMRSA-17, +BTA 0.01%): 3 µg/mL
Cephalexin (antimicrobial plus BTA; quantity not named, MIC implied) (MRSA [2]; EMRSA-17, +BTA 0.1%): 2 µg/mL
Oxacillin (antimicrobial plus BTA; quantity not named, MIC implied) (MRSA [2]; EMRSA-17, +BTA 0.1%): 2 µg/mL
Cephalexin (antimicrobial plus BTA; quantity not named, MIC implied) (MRSA [2]; EMRSA-17, +BTA 1.0%): 1 µg/mL
Oxacillin (antimicrobial plus BTA; quantity not named, MIC implied) (MRSA [2]; EMRSA-17, +BTA 1.0%): 1 µg/mL
Vancomycin (antimicrobial plus BTA; quantity not named, MIC implied) (MRSA [2]; EMRSA-17, +BTA 1.0%): 0.25 µg/mL
Oxacillin (antimicrobial plus BTA; quantity not named, MIC implied) (MRSA [2]; I-MRSA, +BTA 0.01%): 1 µg/mL
Cephalexin (antimicrobial plus BTA; quantity not named, MIC implied) (MRSA [2]; I-MRSA, +BTA 0.1%): 0.75 µg/mL
Oxacillin (antimicrobial plus BTA; quantity not named, MIC implied) (MRSA [2]; I-MRSA, +BTA 0.1%): 0.75 µg/mL
Cephalexin (antimicrobial plus BTA; quantity not named, MIC implied) (MRSA [2]; I-MRSA, +BTA 1.0%): 0.38 µg/mL
Oxacillin (antimicrobial plus BTA; quantity not named, MIC implied) (MRSA [2]; I-MRSA, +BTA 1.0%): 0.32 µg/mL
Vancomycin (antimicrobial plus BTA; quantity not named, MIC implied) (MRSA [2]; I-MRSA, +BTA 1.0%): < 0.25 µg/mL
Vancomycin (antimicrobial plus BTA; quantity not named, MIC implied) (VRE; +BTA 1.0%): 64 µg/mL

teicoplanin
half life [7]: 12 h
MIC of teicoplanin ([5]; L265, EMRSA-16 (TISA), Control): 32 µg/mL
MIC of teicoplanin ([5]; L266, EMRSA-16 (TISA), Control): 8 µg/mL
MIC of teicoplanin ([5]; NCTC 12493, Control): 0.25 µg/mL
level of teicoplanin to which resistance is conferred [6, 9]: ≥ 32 mg/L
level of teicoplanin to which resistance is conferred ([6]; vanB): ≤ 1.0
level of teicoplanin to which resistance is conferred ([6]; vanC1, vanC2, vanC3): ≤ 1.0
level of teicoplanin to which resistance is conferred ([6]; vanE, E. faecalis): 0.5 mg/L

N-carbamoylglycine (Hydantoic acid)
activity against vancomycin-resistant enterococci (VRE) [8]: low-level active

quinupristin/dalfopristin
E. faecium isolates against which active (MIC≦2 mg/L) (E. faecium): 86%

— patent US20060040871A1, “Bacterial transforming agent” (priority 2003, published 2006)
